Tested on: 616215-338-R-J1-PDC spheroids with HUVEC/MSC, viability
Test: Anticancer human tumor 616215-338-R-J1-PDC patient-derived colon adenocarcinoma cell line growth inhibition [PI3K]
Conditions: for IC50: curve of first compound; for viability, T/C: stronger effect = lower value; active = viability on the fitted dose curve at most 10% of control; inactive = the rest
From the text: Combinatorial screen of targeted agents with the PI3K inhibitors inavolisib, alpelisib, duvelisib, and copanlisib in multi-cell type tumor spheroids
A high-throughput screen of multi-cell type tumor spheroids was designed to identify active combinations of targeted small molecules and PI3K pathway inhibitors. Complex spheroids include a stromal component modeled by human endothelial cells (HUVEC) and fibroblasts modeled by human mesenchymal stem cells (MSCs). The concentration ranges selected for each drug and investigational agent were based upon clinically achievable concentrations if the clinical Cmax of the agent was known.
Compounds. The drugs and investigational agents: inavolisib (NSC800729), alpelisib (NSC765974), duvelisib (NSC772469), copanlisib (NSC816437), ipatasertib (NSC767898), afuresertib (NSC778305), talazoparib (NSC767125), sapanisertib (NSC764658), selumetinib (NSC741078), tovorafenib (DAY101, NSC766906), vemurafenib (NSC761431), ravoxertinib (NSC781343), sotorasib (NSC818433), MRTX1133 (NSC 836407), abemaciclib (NSC 768073), palbociclib (NSC758247), venetoclax (NSC 766270), SY5609 (NSC837396), enzalutamide (NSC755605), and darolutamide (NSC825331), were obtained from the National Cancer Institute (NCI) Developmental Therapeutics Program Chemical Repository. The FDA-approved anticancer drug set is available from the NCI Developmental Therapeutics Program. […] The stock solutions were prepared in dimethyl sulfoxide (DMSO, Sigma-Aldrich, St. Louis, MO, cat. D2650) at 800-fold the tested concentration and stored at -70 degrees C prior to their use. All drugs and investigational agents were tested over a range starting from a high concentration at or near the clinical Cmax and decreasing in half-log increments. If the clinical Cmax for an agent had not been determined, the highest concentration tested was 10 microM.
Cell Culture. All cells were maintained in an incubator at 37 degrees C and 5% CO2 with 95% humidity. The PDC lines were cultured according to standard operating procedures established by the NCI PDMR (https://pdmr.cancer.gov/sops/default.htm). All PDCs were thawed and cultured in Matrigel-coated flasks prepared with a working solution of 1X Ham's F-12 nutrient mix, without supplementation (Invitrogen, Waltham, MA, cat. 11765054), 100 U/mL penicillin-streptomycin (Invitrogen, cat. 15140122), and 2.5% Matrigel (Corning Inc., Corning, NY, cat. 354248) for the first three passages. The 354836-022-R-J1-PDC, 475296-252-R-J1-PDC, and 997726-040-R-J2-PDC lines were cultured in 6A media, which includes advanced DMEM/F-12 (Thermo Fisher Scientific, cat. 12634028), 10 mM HEPES (Thermo Fisher Scientific, cat. 15630080), 1X GlutaMAX supplement (Thermo Fisher Scientific, cat. 35050061), 0.1 mg/mL primocin (InvivoGen, San Diego, CA, cat. ant-pm-2), 10% defined fetal bovine serum, heat inactivated (HyClone Laboratories Inc., Logan, UT, cat. SH30070.03HI), 50% L-WRN conditioned media (ATCC, cat. CRL-3276), 1.25 mM N-Acetyl-L-cysteine (Sigma-Aldrich, cat. A9165), 10 mM nicotinamide (Sigma-Aldrich, cat. N0636), 1X B-27 supplement (Thermo Fisher Scientific, cat. 17504044), 1X N-2 supplement (Thermo Fisher Scientific, cat. 17502048), and 10 microM Y-27632 dihydrochloride (Tocris Bioscience, Bristol, United Kingdom, cat. 1254). The 624824-186-R-J2-PDC line was cultured in 6C/Colon 1B media, which includes all 6A media components plus 50 ng/mL human EGF recombinant protein (Thermo Fisher Scientific, cat. PHG0311). […]

[1] = second compound 0.00316 µM, first compound 0.0316 µM
[2] = second compound 0.00316 µM, first compound 0.1 µM
[3] = second compound 0.00316 µM, first compound 0.316 µM
[4] = second compound 0.00316 µM, first compound 1 µM
[5] = second compound 0.01 µM, first compound 0.0316 µM
[6] = second compound 0.01 µM, first compound 0.1 µM
[7] = second compound 0.01 µM, first compound 0.316 µM
[8] = second compound 0.01 µM, first compound 1 µM
[9] = second compound 0.0316 µM, first compound 0.0316 µM
[10] = second compound 0.0316 µM, first compound 0.1 µM
[11] = second compound 0.0316 µM, first compound 0.316 µM
[12] = second compound 0.0316 µM, first compound 1 µM
[13] = second compound 0.1 µM, first compound 0.0316 µM
[14] = second compound 0.1 µM, first compound 0.1 µM
[15] = second compound 0.1 µM, first compound 0.316 µM
[16] = second compound 0.1 µM, first compound 1 µM
[17] = second compound 0.316 µM, first compound 0.0316 µM
[18] = second compound 0.316 µM, first compound 0.1 µM
[19] = second compound 0.316 µM, first compound 0.316 µM
[20] = second compound 0.316 µM, first compound 1 µM
[21] = second compound 1 µM, first compound 0.0316 µM
[22] = second compound 1 µM, first compound 0.1 µM
[23] = second compound 1 µM, first compound 0.316 µM
[24] = second compound 1 µM, first compound 1 µM
[25] = second compound 0.00316 µM, first compound 0.00316 µM
[26] = second compound 0.00316 µM, first compound 0.01 µM
[27] = second compound 0.01 µM, first compound 0.00316 µM
[28] = second compound 0.01 µM, first compound 0.01 µM
[29] = second compound 0.0316 µM, first compound 0.00316 µM
[30] = second compound 0.0316 µM, first compound 0.01 µM
[31] = second compound 0.1 µM, first compound 0.00316 µM
[32] = second compound 0.1 µM, first compound 0.01 µM
[33] = second compound 0.316 µM, first compound 0.00316 µM
[34] = second compound 0.316 µM, first compound 0.01 µM
[35] = second compound 1 µM, first compound 0.00316 µM
[36] = second compound 1 µM, first compound 0.01 µM
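Note: spheroids exposed to agents for seven days before the viability read.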

CC(C)NCC(C(=O)N1CCN(c2ncnc3c2C(C)CC3O)CC1)c1ccc(Cl)cc1 (stereo unspecified) + CC(Nc1ccc2c(c1)OCCn1cc(N3C(=O)OCC3C(F)F)nc1-2)C(N)=O
3760 nM: IC50 (second compound 1 µM)
5880 nM: IC50 (second compound 0.01 µM)
inactive: viability, T/C [1] 86.5% | viability, T/C [2] 95.8% | viability, T/C [3] 95.8% | viability, T/C [4] 98.2% | viability, T/C (second compound 0.00316 µM, first compound 3.16 µM) 69.9% | viability, T/C (second compound 0.00316 µM, first compound 10 µM) 37.7% | viability, T/C [5] 88.5% | viability, T/C [6] 102% | viability, T/C [7] 90.4% | viability, T/C [8] 110% | viability, T/C (second compound 0.01 µM, first compound 3.16 µM) 70% | viability, T/C (second compound 0.01 µM, first compound 10 µM) 32.9% | viability, T/C [9] 97.7% | viability, T/C [10] 104% | viability, T/C [11] 98% | viability, T/C [12] 98.1% | viability, T/C (second compound 0.0316 µM, first compound 3.16 µM) 65.8% | viability, T/C (second compound 0.0316 µM, first compound 10 µM) 37.2% | viability, T/C [13] 95% | viability, T/C [14] 94.6% | viability, T/C [15] 95% | viability, T/C [16] 93.6% | viability, T/C (second compound 0.1 µM, first compound 3.16 µM) 65.7% | viability, T/C (second compound 0.1 µM, first compound 10 µM) 26.1% | viability, T/C [17] 110% | viability, T/C [18] 99.9% | viability, T/C [19] 95.5% | viability, T/C [20] 103% | viability, T/C (second compound 0.316 µM, first compound 3.16 µM) 65.9% | viability, T/C (second compound 0.316 µM, first compound 10 µM) 28% | viability, T/C [21] 106% | viability, T/C [22] 95.5% | viability, T/C [23] 105% | viability, T/C [24] 88.9% | viability, T/C (second compound 1 µM, first compound 3.16 µM) 54% | viability, T/C (second compound 1 µM, first compound 10 µM) 29.3%
5980 nM: IC50 (second compound 0.0316 µM)
6440 nM: IC50 (second compound 0.00316 µM)
4990 nM: IC50 (second compound 0.1 µM)
5130 nM: IC50 (second compound 0.316 µM)

CCN1CCN(Cc2ccc(Nc3ncc(F)c(-c4cc(F)c5nc(C)n(C(C)C)c5c4)n3)nc2)CC1 + CC(Nc1ccc2c(c1)OCCn1cc(N3C(=O)OCC3C(F)F)nc1-2)C(N)=O
> 1000 nM: IC50 (second compound 0.00316 µM) | IC50 (second compound 0.01 µM) | IC50 (second compound 0.0316 µM) | IC50 (second compound 0.1 µM) | IC50 (second compound 0.316 µM) | IC50 (second compound 1 µM)
inactive: viability, T/C [25] 93.8% | viability, T/C [26] 100% | viability, T/C [1] 96.3% | viability, T/C [2] 98.7% | viability, T/C [3] 131% | viability, T/C [4] 111% | viability, T/C [27] 94.9% | viability, T/C [28] 102% | viability, T/C [5] 98.5% | viability, T/C [6] 102% | viability, T/C [7] 113% | viability, T/C [8] 102% | viability, T/C [29] 103% | viability, T/C [30] 111% | viability, T/C [9] 99.8% | viability, T/C [10] 107% | viability, T/C [11] 112% | viability, T/C [12] 96.6% | viability, T/C [31] 104% | viability, T/C [32] 94.3% | viability, T/C [13] 99.3% | viability, T/C [14] 108% | viability, T/C [15] 107% | viability, T/C [16] 74.5% | viability, T/C [33] 102% | viability, T/C [34] 110% | viability, T/C [17] 105% | viability, T/C [18] 97.8% | viability, T/C [19] 96.1% | viability, T/C [20] 57.6% | viability, T/C [35] 113% | viability, T/C [36] 90.9% | viability, T/C [21] 84.6% | viability, T/C [22] 85.5% | viability, T/C [23] 73.7% | viability, T/C [24] 49.6%

Cn1ncnc1[C@H]1c2n[nH]c(=O)c3cc(F)cc(c23)N[C@@H]1c1ccc(F)cc1 + CC(Nc1ccc2c(c1)OCCn1cc(N3C(=O)OCC3C(F)F)nc1-2)C(N)=O
> 100 nM: IC50 (second compound 0.00316 µM) | IC50 (second compound 0.01 µM) | IC50 (second compound 0.0316 µM) | IC50 (second compound 0.1 µM) | IC50 (second compound 0.316 µM) | IC50 (second compound 1 µM)
inactive: viability, T/C (second compound 0.00316 µM, first compound 0.000316 µM) 100% | viability, T/C (second compound 0.00316 µM, first compound 0.001 µM) 90.8% | viability, T/C [25] 98.3% | viability, T/C [26] 103% | viability, T/C [1] 88.8% | viability, T/C [2] 98.4% | viability, T/C (second compound 0.01 µM, first compound 0.000316 µM) 85.9% | viability, T/C (second compound 0.01 µM, first compound 0.001 µM) 90.6% | viability, T/C [27] 91.8% | viability, T/C [28] 84% | viability, T/C [5] 101% | viability, T/C [6] 90.5% | viability, T/C (second compound 0.0316 µM, first compound 0.000316 µM) 102% | viability, T/C (second compound 0.0316 µM, first compound 0.001 µM) 92.7% | viability, T/C [29] 89.8% | viability, T/C [30] 97.6% | viability, T/C [9] 98.5% | viability, T/C [10] 93.2% | viability, T/C (second compound 0.1 µM, first compound 0.000316 µM) 97.1% | viability, T/C (second compound 0.1 µM, first compound 0.001 µM) 92.4% | viability, T/C [31] 104% | viability, T/C [32] 103% | viability, T/C [13] 94.8% | viability, T/C [14] 88.9% | viability, T/C (second compound 0.316 µM, first compound 0.000316 µM) 112% | viability, T/C (second compound 0.316 µM, first compound 0.001 µM) 90.6% | viability, T/C [33] 93.5% | viability, T/C [34] 99.4% | viability, T/C [17] 90% | viability, T/C [18] 88.7% | viability, T/C (second compound 1 µM, first compound 0.000316 µM) 96.2% | viability, T/C (second compound 1 µM, first compound 0.001 µM) 99.3% | viability, T/C [35] 116% | viability, T/C [36] 89.6% | viability, T/C [21] 87.7% | viability, T/C [22] 76.2%
